Assay results from patent US20060210568A1, “Methods and compositions for cancer treatment” (priority 2003, published 2006).

Key:
[1] = system: ADRP expression in MCF-7 cells; experiment: ADRP expression in MCF-7 cells (RT-PCR); format: cell-based, human; details: for increase of ADRP level over the endogenous level: treatment of cells, depends on length of treatment
Description: Ciglitazone is known to bind and activate the nuclear receptor PPAR gamma, which has been shown in MCF-7 to stimulate expression of beta casein (Mueller et al., 1998).
It is known that estradiol plays a dual role in mammary epithelial cells as a stimulator of proliferation and also as a differentiation factor at different times of the developmental stages of mammary gland development (Kumar et al, 2000).
A specific siRNA against human ADRP mRNA (hADRP-siRNA) was designed using the sequence between +225 to +244 of human ADRP as a target. A control siRNA was designed using a portion of the green fluorescence protein gene. Twenty-one-oligonucleotide RNA for hADRP (rArUrU rGrCrA rGrUrU rGrCrC rArArU rArCrC rUTT and rArGrG rUrArU rUrGrG rCrArA rCrUrG rCrArA rUTT) with 3′dTdT overhangs, and for GFP (rGrGrC rUrArC rGrUrC rCrArG rGrArG rCrGrC rArCrC and rUrGrC rGrCrU rCrCrU rGrGrA rCrGrU rArGrC rCrUrU) were synthesized (Integrated DNA Technologies, Inc., Coralville, Iowa). Transfection of siRNA duplex was performed in MCF-7 cells using LipofectAMINE 2000 reagents as described by the manufacturer (Invitrogen, Carlsbad, Calif.). MCF-7 EV grown to 50% confluency in 6-well plates were transfected with 100 pmole of siRNA per well in serum free-DMEM/F12. After 5 h, the medium was replaced with DMEM/F12 containing 5% FBS. Control MCF-7 cells were treated with GFP siRNA. The cells were then treated with 50 μM (50 micromolars) ciglitazone. After 48 h of incubation, RNA samples were collected by Trizol method to measure human ADRP expression and beta casein expression by RT-PCR as described above.

[2] = system: EV MCF-7 cells; experiment: proliferation assay, EV MCF-7 control cells; format: cell-based, human; details: estradiol 10^−9 M, insulin 10 microgramsg/ml, EGF 25 ng/ml in medium
Description: For proliferation assay, the cells were seeded at a density of 5×10^4 cells in phenol red-free α-MEM (PFME) supplemented with 5% of charcoal extracted fetal bovine serum (CHX-FBS) in 6-well culture plates (Costar). Cells were treated with 1 nM 17β-estradiol alone. Control cells were treated with vehicle alone (0.01% DMSO). Cell numbers were counted by hemacytometer every two days. Medium was changed at day 4. Each time point was performed in triplicate. Specifically, the medium contained estradiol (E2 at 10^−9 M), insulin (10 microgramsg/ml) and epidermal growth factor (EGF at 25 ng/ml).

[3] = system: ADRP overexpressing cells (MCF7-C4); experiment: proliferation assay, ADRP overexpressing MCF-7 cells; format: cell-based, human; details: estradiol 10^−9 M, insulin 10 microgramsg/ml, EGF 25 ng/ml in medium
Description: The vector used to over-express ADRP in MCF-7 cells is the ADRP-pcDNA3 vector described in Gao and Serrero, 1999. The G418 resistance gene was used as selectable marker. MCF-7 cells were transfected with the ADRP-pcDNA3 plasmid, using the lipofectamine method. Specifically, MCF-7 cells (WT) were plated onto 60-mm dish at the concentration of 2×10^5 cell per plate in 5% fetal bovine serum (FBS) in DMEM/F12 (1:1 mixture of Dulbecco's modified Eagle's medium and Ham' nutrient F12 medium) overnight before transfection. Cells were washed once with serum-free DMEM/F12 (without antibiotic). The lipofectamine method was used for the transfection. Specifically, 2 μg mouse ADRP pcDNA3 construct was used. Transfection was carried on according to manufacturer's recommendations, with 15 μl of lipofectamine and 5 hours of incubation. After transfection, the medium was replaced with 5% FBS DMEM/F12 and the cells were incubated overnight. G418 at the concentration of 800 μg/ml was added the day after for selection. Cells were selected with this medium for 3 weeks. Six clones were isolated and subjected to RT-PCR to determine the existence of the transfection construct. For proliferation assay, the cells were seeded at a density of 5×10^4 cells in phenol red-free α-MEM (PFME) supplemented with 5% of charcoal extracted fetal bovine serum (CHX-FBS) in 6-well culture plates (Costar). Cells were treated with 1 nM 17β-estradiol alone. Control cells were treated with vehicle alone (0.01% DMSO). Cell numbers were counted by hemacytometer every two days. Medium was changed at day 4. Each time point was performed in triplicate. Specifically, the medium contained estradiol (E2 at 10^−9 M), insulin (10 microgramsg/ml) and epidermal growth factor (EGF at 25 ng/ml).

[4] = system: ADRP expression in adipocytes; details: cited from earlier work

Compound | increase of ADRP level over the endogenous level [1] | proliferation of EV MCF-7 cells (control) [2] | proliferation of ADRP overexpressing cells [3] | ADRP expression ([1]; MCF-7 cells, FIG. 7) | ADRP expression in adipocytes [4]
CC1(COc2ccc(CC3SC(=O)NC3=O)cc2)CCCCC1 (centres unmarked) [ciglitazone] | over 10 fold |  |  |  | 
C[C@]12CC[C@@H]3c4ccc(O)cc4CC[C@H]3[C@@H]1CC[C@@H]2O [estradiol, 17β-estradiol, reference compound] | 2-3 fold | stimulated the proliferation | no effect | stimulates ADRP expression | 
CC(C)Cc1ccc(C(C)C(=O)O)cc1 (centres unmarked) [ibuprofen] |  |  |  |  | stimulated
COc1ccc2c(c1)c(CC(=O)O)c(C)n2C(=O)c1ccc(Cl)cc1 [indomethacin] |  |  |  |  | stimulated
epidermal growth factor: growth factor known to stimulate the proliferation of mammary epithelial cells |  | stimulated the proliferation | no effect |  | 
insulin: hormone known to stimulate the proliferation of mammary epithelial cells |  | stimulated the proliferation | no effect |  | 
